# Data from ChEMBL document CHEMBL5335808, “Design, synthesis of new 3H-imidazo[4,5-b]pyridine derivatives and evaluation of their inhibitory properties as mixed lineage kinase 3 inhibitors” (Bioorg Med Chem Lett, 2024).
# Tests used:
# [1] = target: T1, Mitogen-activated protein kinase kinase kinase 11 (Homo sapiens, UniProt Q16584); assay: Inhibition of human MLK3 by ATP-competitive binding assay
# Target sequence in this assay (Q16584 whole entry): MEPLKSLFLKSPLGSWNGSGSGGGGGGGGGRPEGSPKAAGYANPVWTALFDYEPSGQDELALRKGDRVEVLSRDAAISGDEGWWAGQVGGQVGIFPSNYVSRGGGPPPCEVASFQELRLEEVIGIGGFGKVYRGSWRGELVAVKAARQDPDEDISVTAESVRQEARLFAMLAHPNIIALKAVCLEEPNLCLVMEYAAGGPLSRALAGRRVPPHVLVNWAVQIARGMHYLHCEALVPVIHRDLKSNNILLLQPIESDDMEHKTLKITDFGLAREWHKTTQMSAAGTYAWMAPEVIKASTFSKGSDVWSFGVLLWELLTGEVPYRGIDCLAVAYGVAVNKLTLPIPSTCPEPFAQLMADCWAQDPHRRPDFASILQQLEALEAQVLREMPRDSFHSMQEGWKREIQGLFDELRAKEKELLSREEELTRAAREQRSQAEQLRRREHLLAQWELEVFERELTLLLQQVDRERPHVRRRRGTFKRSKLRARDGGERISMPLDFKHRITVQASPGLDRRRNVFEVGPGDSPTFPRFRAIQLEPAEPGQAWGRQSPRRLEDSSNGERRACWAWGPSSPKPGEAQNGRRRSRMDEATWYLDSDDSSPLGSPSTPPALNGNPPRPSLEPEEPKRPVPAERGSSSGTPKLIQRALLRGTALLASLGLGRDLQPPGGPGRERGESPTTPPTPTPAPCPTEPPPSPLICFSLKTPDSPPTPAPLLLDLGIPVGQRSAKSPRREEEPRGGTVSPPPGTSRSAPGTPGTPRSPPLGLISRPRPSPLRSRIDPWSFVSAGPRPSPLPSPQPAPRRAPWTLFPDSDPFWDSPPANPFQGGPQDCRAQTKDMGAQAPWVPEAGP
# [2] = Permeability of the compound by PAMPA method; type: ADME; settings: read-out: Peff
# [3] = Lipophilicity, LogP of the compound; type: physicochemical; settings: octanol/water
# [4] = target: T1, Mitogen-activated protein kinase kinase kinase 11; assay: Inhibition of human MLK3 at 0.5 uM by ATP-competitive binding assay relative to control
# Target sequence in this assay (Q16584 whole entry, looked up): as the sequence (Q16584 whole entry) above
SMILES,IC50 [1] [nM],Papp [2] [×10⁻⁶ cm/s],logP [3],inhibition [4] [%]
CCS(=O)(=O)N1CC[C@H](Nc2c(Br)cnc3[nH]c(-c4cc(C)n(-c5ccc(C(=O)NCCN(C)C)cc5)c4C)nc23)C1,–,2.53,3.86,–
CCS(=O)(=O)N1CC[C@H](Nc2c(Br)cnc3nc(-c4cc(C)n(-c5cccc(NC(=O)CN6CCOCC6)c5C)c4C)[nH]c23)C1,–,47.8,4.28,–
CC(C)c1nn(C)cc1-c1nc2cc(Br)cnc2[nH]1,–,–,–,21
O=C1Nc2ccc3ncsc3c2/C1=C/c1c[nH]cn1,144,–,–,–
CCS(=O)(=O)N1CC[C@H](Nc2c(Br)cnc3[nH]c(-c4cc(C)n(-c5ccc(C(=O)N(C)CCN(C)C)cc5)c4C)nc23)C1,–,8.91,3.52,–
CCS(=O)(=O)N1CC[C@H](Nc2c(Br)cnc3[nH]c(-c4cc(C)n(-c5ccc(NC(=O)CN(C)C)cc5C)c4C)nc23)C1,–,48.7,4.53,–
CCS(=O)(=O)N1CC[C@H](Nc2c(Br)cnc3[nH]c(-c4cc(C)n(-c5ccc(C(=O)N6CCOCC6)cc5)c4C)nc23)C1,6,13.1,3.92,–

# The next lines start with the values.
IC50 [1] [nM],Papp [2] [×10⁻⁶ cm/s],logP [3],inhibition [4] [%],SMILES
27,3.42,4.81,–,CCS(=O)(=O)N1CC[C@H](Nc2c(Br)cnc3[nH]c(-c4cc(C)n(-c5cccc(C(=O)NCCN(C)C)c5)c4C)nc23)C1
6,15.2,3.69,–,CCS(=O)(=O)N1CC[C@H](Nc2c(Br)cnc3[nH]c(-c4cc(C)n(-c5cccc(C(=O)N6CCOCC6)c5)c4C)nc23)C1
–,–,5.89,–,CCS(=O)(=O)N1CC[C@H](Nc2c(Br)cnc3[nH]c(-c4cc(C)n(-c5cc(NC(=O)CN6CCN(C)CC6)ccc5C)c4C)nc23)C1
25,13.9,5.16,–,CCS(=O)(=O)N1CC[C@H](Nc2c(Br)cnc3[nH]c(-c4cc(C)n(-c5ccc(C(=O)N6CCN(C)CC6)cc5C)c4C)nc23)C1
–,35.7,5.06,–,CCS(=O)(=O)N1CC[C@H](Nc2c(Br)cnc3[nH]c(-c4cc(C)n(-c5cc(C(=O)N6CCN(C)CC6)ccc5C)c4C)nc23)C1
–,21.2,4.86,–,CCS(=O)(=O)N1CC[C@H](Nc2c(Br)cnc3nc(-c4cc(C)n(-c5cccc(C(=O)NCCN(C)C)c5C)c4C)[nH]c23)C1
–,55.9,5.17,–,CCS(=O)(=O)N1CC[C@H](Nc2c(Br)cnc3nc(-c4cc(C)n(-c5cccc(NC(=O)CN(C)C)c5C)c4C)[nH]c23)C1
